The MIC is the lowest concentration found to suppress growth.

Converted amounts (≈) assume the structure as drawn. Where a SMILES comes first, the peptide text is derived from it. Bridges are numbered along the chain shown (N, C = ends). Roman numbers before positions name the chains, in order. [ ]: non-standard residue; d: D form. Hiv = CC(C)[C@H](O)C(=O)O; dDab = NCC[C@@H](N)C(=O)O; Dab = NCC[C@H](N)C(=O)O; Abu = CC[C@H](N)C(=O)O; Dap = NC[C@H](N)C(=O)O

This note sets out measurements from patent US11629171B2, “Beta-hairpin peptidomimetics” (POLYPHOR AG, priority 2017, dated 2023).

The subject of series [1] is human red blood cells (hRBC). The series is described as follows: Hemolysis. As to conditions: red cells of human, 1 h, 200. It counts as cell-based. Summed up: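 First, fresh human erythrocytes are washed in PBS; next, they are incubated at 20% (v/v) with compound at 200 μg/mL for 1 h at 37° C. Finally, centrifuged supernatants are diluted and OD540 is taken relative to the Triton X-100 lysis control.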

The subject of series [2] is Klebsiella pneumoniae 968733. It counts as cell-based. As to conditions: 968733. A digest of the protocol:
(§1)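 MIC in μg/mL, read as no visible growth after 18-20 hours at 35° C. Peptides were serially diluted two-fold in MH-II broth plus P-80 (0.002% final, v/v) and inoculated at about 10^6 CFU/mL following the CLSI broth microdilution standard.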

Series [3] deals with Escherichia coli ATCC 25922. Type of series: cell-based. As to conditions: ATCC 25922. Summed up: as §1
In series [4] the test system is Pseudomonas aeruginosa ATCC 27853. It counts as cell-based. The conditions noted are these: ATCC 27853. A digest of the protocol:
as §1

Series [5] has as its system Klebsiella pneumoniae SSI #3010. Type of series: cell-based. As to conditions: SSI #3010. Summed up:
as §1

The test system of series [6] is Acinetobacter baumannii DSM 30008. It counts as cell-based. The conditions noted are these: DSM 30008. Summed up:
as §1

Series [7] concerns Enterobacter cloacae 848840. It counts as cell-based. As to conditions: 848840. Summed up:
as §1

Another series relates to Escherichia coli 926415. Type of series: cell-based. As to conditions: 926415. Summed up: as §1
The test system of series [8] is Acinetobacter baumannii 872842. It counts as cell-based. As to conditions: 872842. Summed up: as §1
The next series deals with male ICR mice. Description: Tolerability in a mouse model (Maximum Tolerated Dose assay). Type of series: in vivo. As to conditions: 2 × 40 mg/kg s.c. at a 12-hr interval, groups of 3. Summed up: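 Groups of 3 male ICR mice weighing 23±3 g received two subcutaneous doses, 12 h apart, of 30 or 40 mg/kg in saline adjusted to pH 6.5-7.6. Observation for 30 min after each dose covered autonomic effects and acute toxicity, including death.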

Turning to `CC[C@@H]1NC(=O)[C@@H](CC(C)C)NC(=O)[C@H](CCN)NC(=O)[C@@H](NC(=O)[C@H](CN)NC(=O)[C@@H](NC(=O)[C@H](CCN)NC(=O)CC[C@@H]2NC(=O)[C@H](CCN)NC(=O)[C@H](Cc3ccc(O)cc3)NC(=O)[C@@H](NC(=O)[C@@H](O)C(C)C)CSSC[C@@H](C(=O)N[C@@H](CO)C(=O)N[C@H](CO)C(N)=O)NC(=O)[C@H]([C@@H](C)CC)NC(=O)[C@H](CO)NC(=O)[C@H](Cc3c[nH]c4ccccc34)NC(=O)CNC(=O)[C@@H](CCN)NC2=O)[C@@H](C)O)CCNC(=O)[C@H]([C@@H](C)O)NC(=O)[C@H](CCN)NC(=O)[C@H](CCN)NC1=O` [Ex. 376] (I: H-[Hiv]CY[Dab]E[dDab]GWSICS[dS]-NH2 / II: [Dab]T[Dap][Dab][Dab][dL][Abu][Dab][Dab]T; disulfide I:2-I:11; amide I:5-II:N; lactam II:4-II:C), the “Hemolysis at 200 μg/mL” value in series [1] is recorded as under 1%. Also, the MIC in series [2] is 0.5 µg/mL (≈ 0.208 µM); in series [7], 0.0625 µg/mL (≈ 0.026 µM); with Escherichia coli 926415, 0.25 µg/mL (≈ 0.104 µM); in series [8] it was 0.25 µg/mL (≈ 0.104 µM). Besides, the “Escherichia coli ATCC 25922 MIC” value in series [3] turned out to be 0.0625 µg/mL. The “Pseudomonas aeruginosa ATCC 27853 MIC” value in series [4] amounted to 0.125 µg/mL. Also, the “Klebsiella pneumoniae SSI #3010 MIC” value in series [5] came to 0.0625 µg/mL. Moreover, the “Acinetobacter baumannii DSM 30008 MIC” value in series [6] worked out at 0.0625 µg/mL. Moreover, the Mortality and dose in the series with male ICR mice is listed as 0/3 died at 2 × 40 mg/kg.
With `CC(C)C[C@@H]1NC(=O)[C@@H](CC(C)C)NC(=O)[C@H](CCN)NC(=O)[C@@H](NC(=O)[C@H](CN)NC(=O)[C@@H](NC(=O)[C@H](CCN)NC(=O)CC[C@@H]2NC(=O)[C@H](CCN)NC(=O)[C@H](Cc3ccc(O)cc3)NC(=O)[C@@H](NC(=O)[C@@H](O)C(C)C)CSSC[C@@H](C(=O)N[C@@H](CO)C(=O)N[C@H](C)C(N)=O)NC(=O)[C@H](C(C)C)NC(=O)[C@H](CO)NC(=O)[C@H](Cc3c[nH]c4ccccc34)NC(=O)[C@H](CO)NC(=O)[C@@H](CCN)NC2=O)[C@@H](C)O)CCNC(=O)[C@H]([C@@H](C)O)NC(=O)[C@H](CCN)NC(=O)[C@H](CCN)NC1=O` [Ex. 379] (I: H-[Hiv]CY[Dab]E[dDab]SWSVCS[dA]-NH2 / II: [Dab]T[Dap][Dab][Dab][dL]L[Dab][Dab]T; disulfide I:2-I:11; amide I:5-II:N; lactam II:4-II:C), the “Hemolysis at 200 μg/mL” value in series [1] is given as under 1%. Besides, the minimal inhibitory concentration (MIC) in series [2] was found to be 0.25 µg/mL (≈ 0.103 µM); in [7] it was 1 µg/mL (≈ 0.412 µM); against Escherichia coli 926415 it was 0.25 µg/mL (≈ 0.103 µM); in series [8], 0.125 µg/mL (≈ 0.0515 µM). In addition, in series [3], the “Escherichia coli ATCC 25922 MIC” value stood at 0.03125 µg/mL. Moreover, in [4], the “Pseudomonas aeruginosa ATCC 27853 MIC” value was found to be 0.125 µg/mL. Besides, in series [5], the “Klebsiella pneumoniae SSI #3010 MIC” value was found to be 0.0625 µg/mL. In addition, the “Acinetobacter baumannii DSM 30008 MIC” value in series [6] worked out at 0.0625 µg/mL. The Mortality and dose in the series with male ICR mice is reported as 0/3 died at 2 × 40 mg/kg.
